Drawing on US20240285571A1, “METHODS OF TREATING BONE INFECTIONS” (MICROBION CORPORATION, priority 2020, published 2024), this text covers MIC for 2 compounds.

Bounds are passed on as bounds.

The test system of assay [1] is Achromobacter spp. The assay is described as follows: MIC against CF isolates (Example 7, Table 18). In kind it is cell-based. As to conditions: strain AX4, A. xylosoxidans.
Assay [2] concerns beta-hemolytic streptococci. The experiment in a line: MIC summary, beta-hemolytic streptococci (Example 5). Conditions: beta-hemolytic streptococci (Table 6); read-out: MIC values across isolates. It counts as cell-based, S. pyogenes, S. agalactiae. The protocol: Test and Comparator Agents: The test agents were stored at room temperature until assayed. All test agents were suspended and diluted in 100% dimethylsulfoxide (DMSO), and were ultimately tested at a final concentration of 0.06-64 μg/mL. The stock solutions were allowed to stand for at least 1 hr prior to use to auto-sterilize.
TestMedia: Test media were prepared and stored in accordance with guidelines from CLSI (4, 6, 7). […] Neisseria gonorrhoeae were evaluated by agar dilution using agar consisting of GC medium base (BD; Lot No. 4274618) supplemented with 1% IsoVitaleX (BD; Lot No. 5246843).
Broth Microdilution MC Testing (Aerobic Bacteria and Yeast): The broth microdilution assay method employed for the susceptibility testing of aerobic bacteria (excluding N. gonorrhoeae which was evaluated by agar dilution) and yeast essentially followed the procedures described by CLSI (3, 4, 7, 8) and employed automated liquid handlers to conduct serial dilutions and liquid transfers. […]
Plates were stacked 4 high, covered with a lid on the top plate, placed into plastic bags, and incubated at 35° C. for approximately 24-48 hr for all yeast isolates and 16-24 hr for aerobic bacteria. […] MIC endpoints for the test agents and control compounds were read per CLSI criteria (3, 7).

With `NCC[C@H](O)C(=O)N[C@@H]1C[C@H](N)[C@@H](O[C@H]2O[C@H](CN)[C@@H](O)[C@H](O)[C@H]2O)[C@H](O)[C@H]1O[C@H]1O[C@H](CO)[C@@H](O)[C@H](N)[C@H]1O` [Amikacin], in assay [1], the MIC is more than 64 mg/L. Take `OCC(S)CS.[Bi]` (centres unmarked) [MB-2B, bismuth-2,3-dimercaptopropanol]: in assay [2], the MIC lay within 0.25 to 8 mg/L.

As a reminder, the MIC is the lowest concentration found to suppress growth.
